Measurements: patent publication US9957271B2, “Substituted bicyclic aza-heterocycles and analogues as sirtuin modulators” (GlaxoSmithKline, LLC, priority 2012, dated 2018)
Values belong to the compound of their own block, whether it stands above or below them.

Assays:
SIRT1 [1] = target: T1, SIRT1 (Homo sapiens, UniProt Q96EB6); test: Trp mass spectrometry assay of SIRT1 activity; format: biochemical; conditions: for Emax: read-out: Trp % Fold Act; for Trp EC1.5 (μM): concentration giving 150% activation of SIRT1
T1 sequence (Q96EB6 1-747): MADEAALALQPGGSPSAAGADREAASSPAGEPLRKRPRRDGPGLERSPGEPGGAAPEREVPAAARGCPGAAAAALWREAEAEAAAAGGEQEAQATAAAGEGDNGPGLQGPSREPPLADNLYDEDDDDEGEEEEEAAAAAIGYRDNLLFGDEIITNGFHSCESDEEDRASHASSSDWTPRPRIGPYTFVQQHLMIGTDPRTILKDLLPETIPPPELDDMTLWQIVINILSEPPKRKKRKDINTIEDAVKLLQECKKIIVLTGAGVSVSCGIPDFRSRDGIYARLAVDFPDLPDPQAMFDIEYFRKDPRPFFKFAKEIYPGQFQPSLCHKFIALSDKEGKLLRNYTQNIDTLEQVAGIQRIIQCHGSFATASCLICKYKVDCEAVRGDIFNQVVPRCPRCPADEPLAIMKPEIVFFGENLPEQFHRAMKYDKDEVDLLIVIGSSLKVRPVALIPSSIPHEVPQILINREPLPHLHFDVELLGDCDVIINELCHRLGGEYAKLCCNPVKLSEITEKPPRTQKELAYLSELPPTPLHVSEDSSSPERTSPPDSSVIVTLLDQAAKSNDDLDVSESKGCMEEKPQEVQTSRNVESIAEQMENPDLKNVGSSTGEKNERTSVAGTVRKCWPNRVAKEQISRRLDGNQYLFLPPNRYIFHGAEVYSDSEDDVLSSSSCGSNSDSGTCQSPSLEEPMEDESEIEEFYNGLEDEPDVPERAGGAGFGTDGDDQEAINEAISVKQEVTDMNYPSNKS
From the text: Mass spectrometry based assays were used to identify modulators of SIRT1 activity. The TAMRA based assay utilized a peptide having 20 amino acid residues as follows: Ac-EE-K(biotin)-[…](Ac)NleSTEG-K(5TMR)-EE-NH2 (SEQ ID NO: 1), wherein K(Ac) is an acetylated lysine residue and Nle is a norleucine. The peptide was labeled with the fluorophore 5TMR (excitation 540 nm/emission 580 nm) at the C-terminus. The sequence of the peptide substrate was based on p53 with several modifications. In addition, the methionine residue naturally present in the sequence was replaced with the norleucine because the methionine may be susceptible to oxidation during synthesis and purification. The Trp based assay utilized a peptide having an amino acid residues as follows: Ac-R-H-K-K(Ac)-W-NH2 (SEQ ID NO: 2).
The Trp mass spectrometry assay was conducted as follows. 0.5 μM peptide substrate and 120 μM βNAD^+ were incubated with 10 nM SIRT1 for 25 minutes at 25° C. in a reaction buffer (50 mM HEPES pH 7.5, […], 1 mM DTT, 0.05% BSA). The SIRT1 protein was obtained by cloning the SirT1 gene into a T7-promoter containing vector, which was then expressed in BL21(DE3) bacterial cells and purified as described in further detail below. Test compound was added at varying concentrations to this reaction mixture and the resulting reactions were monitored. After the 25 minute incubation with SIRT1, 10 μL of 10% formic acid was added to stop the reaction. The resulting reactions were sealed and frozen for later mass spec analysis. The relative SIRT1 activity was then determined by measuring the amount of O-acetyl-ADP-ribose (OAADPR) formed (or, alternatively, the amount of deacetylated Trp peptide generated) by the NAD-dependent sirtuin deacetylation reaction in the presence of varying concentrations of the test compound versus control reactions lacking the test compound. The degree to which the test agent activated deacetylation by SIRT1 was expressed as EC1.5 (i.e., the concentration of compound required to increase SIRT1 activity by 50% over the control lacking test compound), and Percent Maximum Activation (i.e., the maximum activity relative to control (100%) obtained for the test compound).
A control for inhibition of sirtuin activity was conducted by adding 1 μL of 500 mM nicotinamide as a negative control at the start of the reaction (e.g., permits determination of maximum sirtuin inhibition). A control for activation of sirtuin activity was conducted using 10 nM of sirtuin protein, with 1 μL of DMSO in place of compound, to determine the amount of deacetylation of the substrate at a given time point within the linear range of the assay. This time point was the same as that used for test compounds and, within the linear range, the endpoint represents a change in velocity.
For the above assay, SIRT1 protein was expressed and purified as follows. The SirT1 gene was cloned into a T7-promoter containing vector and transformed into BL21(DE3). The protein was expressed by induction with 1 mM IPTG as an N-terminal His-tag fusion protein at 18° C. overnight and harvested at 30,000×g. Cells were lysed with lysozyme in lysis buffer (50 mM Tris-HCl, 2 mM Tris[2-carboxyethyl]phosphine (TCEP), 10 μM ZnCl2, 200 mM NaCl) and further treated with sonication for […] for complete lysis. The protein was purified over a Ni-NTA column (Amersham) and fractions containing pure protein were pooled, concentrated and run over a sizing column (Sephadex S200 26/60 global). The peak containing soluble protein was collected and run on an Ion-exchange column (MonoQ). Gradient elution (200 mM-500 mM NaCl) yielded pure protein. This protein was concentrated and dialyzed against dialysis buffer (20 mM Tris-HCl, 2 mM TCEP) overnight. The protein was aliquoted and frozen at −80° C. until further use.

SIRT1 [2] = target: T1, SIRT1; test: TAMRA based mass spectrometry assay of SIRT1 activity; format: biochemical; conditions: for Emax: percent maximum fold activation, read-out: TAMRA % Fold Act
Summary of the method: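 Deacetylation of a biotinylated, TAMRA-tagged p53-based peptide (0.5 μM) by 10 nM His-tagged SIRT1 with 120 μM βNAD+, 25 °C for 25 min, pH 8 Tris-acetate buffer, across a compound concentration range. Quenched by formic acid and read by mass spec as product peptide or OAADPR; activity relative to DMSO reactions, nicotinamide defining maximal inhibition.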

[3] = percent maximum fold activation of SIRT1, Trp peptide substrate
[4] = Trp assay, percent maximum fold activation
[5] = TAMRA assay, concentration giving 150% activation of SIRT1

SMILES: O=C(Nc1cccnc1)c1cnc2ccc(N3CCC[C@H](F)C3)nn12 [Compound 987]
Emax (SIRT1 [1]; [4]): ≥ 350%

SMILES: O=C(Nc1ccccn1)c1cnc2ccc(N3CC[C@H](F)C3)nn12 [Compound 836]
Trp EC1.5 (μM) (SIRT1 [1]; Trp assay): B (EC1.5 1-25 μM)
Emax (SIRT1 [1]; [4]): ≥ 350%

SMILES: Cc1nc2ccc(N3CC[C@H](F)C3)nn2c1C(=O)Nc1ccncn1 [Compound 855]
Trp EC1.5 (μM) (SIRT1 [1]; Trp assay): B (EC1.5 1-25 μM)
Emax (SIRT1 [1]; [4]): ≥ 350%

SMILES: O=C(Nc1cccnn1)c1cnc2ccc(N3CC[C@H](F)C3)nn12 [Compound 856]
Trp EC1.5 (μM) (SIRT1 [1]; Trp assay): B (EC1.5 1-25 μM)
Emax (SIRT1 [1]; [4]): < 350%

SMILES: Cc1cc(C(=O)Nc2cnn3ccc(-c4ccccc4OC(F)(F)F)nc23)nc(C)n1 [Compound 727]
TAMRA EC1.5 (μM) (SIRT1 [2]; [5]): A (EC1.5<1 μM)
Emax (SIRT1 [2]; TAMRA assay): ≥ 350%

SMILES: COc1ccc(NC(=O)c2c(C)nc3ccc(-c4ccccc4C)nn23)nn1 [Compound 720]
TAMRA EC1.5 (μM) (SIRT1 [2]; [5]): B (EC1.5 1-25 μM)
Emax (SIRT1 [2]; TAMRA assay): ≥ 350%

SMILES: Cc1cc(NC(=O)c2cnn3ccc(-c4ccccc4C(F)(F)F)nc23)ccn1 [Compound 619]
TAMRA EC1.5 (μM) (SIRT1 [2]; [5]): A (EC1.5<1 μM)
Emax (SIRT1 [2]; TAMRA assay): ≥ 350%

SMILES: O=C(Nc1cnc2ccc(-c3ccccc3OC(F)(F)F)nn12)c1cnccn1 [Compound 313]
TAMRA EC1.5 (μM) (SIRT1 [2]; [5]): A (EC1.5<1 μM)
Emax (SIRT1 [2]; TAMRA assay): ≥ 350%

SMILES: CCOc1ccc(NC(=O)c2cnn3ccc(-c4ccccc4C(F)(F)F)nc23)nn1 [Compound 658]
TAMRA EC1.5 (μM) (SIRT1 [2]; [5]): A (EC1.5<1 μM)
Emax (SIRT1 [2]; TAMRA assay): ≥ 350%

SMILES: COc1nccc(NC(=O)c2c(C)nc3ccc(-c4ccccc4C(F)(F)F)nn23)n1 [Compound 476]
TAMRA EC1.5 (SIRT1 [2]; TAMRA peptide substrate, concentration giving 150% activation of SIRT1): A (EC1.5<1 μM)
Emax (SIRT1 [2]; TAMRA peptide substrate): ≥ 350%

The next lines start with the values.

Emax (SIRT1 [1]; [3]): ≥ 350%
SMILES: Cc1nn2ccc(N3CCC[C@@H]3C(F)(F)F)nc2c1C(=O)Nc1cccnc1 [Compound 1071]

Emax (SIRT1 [1]; [3]): ≥ 350%
SMILES: Cc1cncc(NC(=O)c2c(C)nn3ccc(N4CCC[C@@H]4C(F)(F)F)nc23)c1 [Compound 1072]

Emax (SIRT1 [1]; [3]): ≥ 350%
SMILES: C[C@@H]1CN(c2ccc3ncc(C(=O)Nc4cccnc4)n3n2)CCO1 [Compound 1002]

Emax (SIRT1 [1]; [3]): ≥ 350%
SMILES: O=C(Nc1cnc2c(c1)COCC2)c1cnc2ccc(N3CCCC3C(F)(F)F)nn12 (centres unmarked) [Compound 1095]

Emax (SIRT1 [1]; [3]): ≥ 350%
SMILES: Cc1cncc(NC(=O)c2cnn3ccc(N4CCC(C(F)(F)F)CC4)nc23)c1 [Compound 1073]

Emax (SIRT1 [1]; [3]): < 350%
SMILES: Cc1cncc(NC(=O)c2cnn3ccc(N4CCCC4C)nc23)c1 (centres unmarked) [Compound 1045]

Emax (SIRT1 [1]; [3]): ≥ 350%
SMILES: Cc1nn2ccc(N3CCC[C@H]3C(F)(F)F)nc2c1C(=O)Nc1cncc(F)c1 [Compound 1050]
